Experimental data as given in ChEMBL document CHEMBL5528056, “BAY-9835: Discovery of the First Orally Bioavailable ADAMTS7 Inhibitor” (J Med Chem, 2024).

Tests used:
[1] = Selectivity ratio of IC50 for ADAMTS4 (unknown origin) to IC50 for ADAMTS7 (unknown origin)
[2] = Selectivity ratio of IC50 for ADAM17 (unknown origin) to IC50 for ADAMTS7 (unknown origin)
[3] = Selectivity ratio of IC50 for MMP15 (unknown origin) to IC50 for ADAMTS7 (unknown origin)
Cytochrome P450 3A4 [4] = target: T1, Cytochrome P450 3A4 (Homo sapiens, UniProt P08684); experiment: Induction of CYP3A4 in human hepatocytes assessed as threshold concentration incubated for 48 hrs by qPCR analysis; assay type: ADME, cell-based, Hepatocyte
[5] = Stability in aqueous solution at pH 1 to 7 measured after 24 hrs by HPLC analysis; assay type: physicochemical; conditions: buffer, pH 1, 24 h
[6] = target: A disintegrin and metalloproteinase with thrombospondin motifs 7 (Mus musculus, UniProt Q68SA9); experiment: Inhibition of recombinant mouse ADAMTS7 using HiLyteFluor-488 DELSSMVLELRGLRT-K(QXL520)-E-NH2 as substrate incubated for 120 mins by FRET assay
[7] = target: A disintegrin and metalloproteinase with thrombospondin motifs 7 (Rattus norvegicus, UniProt Q1EHB3); experiment: Inhibition of recombinant rat ADAMTS7 using HiLyteFluor-488 DELSSMVLELRGLRT-K(QXL520)-E-NH2 as substrate incubated for 120 mins by FRET assay
[8] = Stability in human plasma measured for 4 hrs by HPLC analysis; assay type: ADME, cell-free
[9] = Fraction unbound in human plasma; assay type: ADME, cell-free
Cytochrome P450 3A4 [10] = target: T1, Cytochrome P450 3A4; experiment: Inhibition of CYP3A4 in human liver microsomes using midazolam as substrate upto 20 uM by LC-MS/MS analysis; assay type: ADME, Microsome
Cytochrome P450 3A4 [11] = target: T1, Cytochrome P450 3A4; experiment: Induction of CYP3A4 in human hepatocytes upto 61 uM incubated for 48 hrs by qPCR analysis; assay type: ADME, cell-based, Hepatocyte
[12] = Genotoxicity in Salmonella typhimurium by Ames […] test; assay type: toxicity; conditions: salmonella enterica subsp. enterica serovar typhimurium
[13] = target: Voltage-gated inwardly rectifying potassium channel KCNH2 (Homo sapiens, UniProt Q12809); experiment: Inhibition of hERG upto 10 uM by whole-cell voltage clamp method; assay type: toxicity
[14] = Selectivity ratio of IC50 for C-terminal 10His-tagged recombinant human ADAM10 (214 to 672 residues) expressed in baculovirus infected Sf21 cells using Dabcyl-SSNQLQRR-Glu(EDANS)-NH2 as substrate to IC50 for ADAMTS7 (unknown origin)
[15] = Selectivity ratio of IC50 for C-terminal 10His-tagged recombinant human MMP-14 (21 to 284 residues) expressed in Escherichia coli using McaKPLGL-Dpa-AR-NH2 as substrate to IC50 for ADAMTS7 (unknown origin)
[16] = Dose normalized AUC in C57bl6 mouse at 0.3 mg/kg, iv measured for >24 hrs by HPLC-MS/MS analysis; assay type: ADME, organism-based; conditions: in vivo
[17] = Volume of distribution at steady state in C57bl6 mouse at 0.3 mg/kg, iv measured for >24 hrs by HPLC-MS/MS analysis; assay type: ADME, organism-based; conditions: in vivo
[18] = Volume of distribution at steady state in Wistar rat at 0.3 mg/kg, iv measured for >24 hrs by HPLC-MS/MS analysis; assay type: ADME, organism-based; conditions: in vivo
[19] = Dose normalized AUC in Wistar rat at 1 mg/kg, po measured for >24 hrs by HPLC-MS/MS analysis; assay type: ADME, organism-based; conditions: in vivo
[20] = Clearance in Beagle dog at 0.3 mg/kg, iv measured for >24 hrs by HPLC-MS/MS analysis; assay type: ADME, organism-based, Canis lupus familiaris; conditions: in vivo
[21] = Volume of distribution at steady state in Beagle dog at 0.3 mg/kg, iv measured for >24 hrs by HPLC-MS/MS analysis; assay type: ADME, organism-based, Canis lupus familiaris; conditions: in vivo
[22] = Half life in Beagle dog at 1 mg/kg, po measured for >24 hrs by HPLC-MS/MS analysis; assay type: ADME, organism-based, Canis lupus familiaris; conditions: in vivo

T1 sequence (P08684 whole entry): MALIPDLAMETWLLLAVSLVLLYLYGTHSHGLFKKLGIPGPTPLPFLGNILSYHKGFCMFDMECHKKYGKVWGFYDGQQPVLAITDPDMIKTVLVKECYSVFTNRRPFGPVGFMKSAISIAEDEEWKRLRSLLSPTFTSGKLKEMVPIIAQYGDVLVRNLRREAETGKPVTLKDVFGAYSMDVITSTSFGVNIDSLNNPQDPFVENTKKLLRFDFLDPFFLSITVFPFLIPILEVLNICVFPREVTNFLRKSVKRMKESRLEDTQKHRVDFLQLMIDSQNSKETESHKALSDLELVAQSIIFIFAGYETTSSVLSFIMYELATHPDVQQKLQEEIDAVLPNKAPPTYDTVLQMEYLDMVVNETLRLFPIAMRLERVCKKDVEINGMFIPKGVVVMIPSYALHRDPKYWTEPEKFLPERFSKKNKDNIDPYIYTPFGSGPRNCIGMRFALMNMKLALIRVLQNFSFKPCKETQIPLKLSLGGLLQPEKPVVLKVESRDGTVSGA
Chain of Voltage-gated inwardly rectifying potassium channel KCNH2 (Q12809 whole entry, the tested form may be a part): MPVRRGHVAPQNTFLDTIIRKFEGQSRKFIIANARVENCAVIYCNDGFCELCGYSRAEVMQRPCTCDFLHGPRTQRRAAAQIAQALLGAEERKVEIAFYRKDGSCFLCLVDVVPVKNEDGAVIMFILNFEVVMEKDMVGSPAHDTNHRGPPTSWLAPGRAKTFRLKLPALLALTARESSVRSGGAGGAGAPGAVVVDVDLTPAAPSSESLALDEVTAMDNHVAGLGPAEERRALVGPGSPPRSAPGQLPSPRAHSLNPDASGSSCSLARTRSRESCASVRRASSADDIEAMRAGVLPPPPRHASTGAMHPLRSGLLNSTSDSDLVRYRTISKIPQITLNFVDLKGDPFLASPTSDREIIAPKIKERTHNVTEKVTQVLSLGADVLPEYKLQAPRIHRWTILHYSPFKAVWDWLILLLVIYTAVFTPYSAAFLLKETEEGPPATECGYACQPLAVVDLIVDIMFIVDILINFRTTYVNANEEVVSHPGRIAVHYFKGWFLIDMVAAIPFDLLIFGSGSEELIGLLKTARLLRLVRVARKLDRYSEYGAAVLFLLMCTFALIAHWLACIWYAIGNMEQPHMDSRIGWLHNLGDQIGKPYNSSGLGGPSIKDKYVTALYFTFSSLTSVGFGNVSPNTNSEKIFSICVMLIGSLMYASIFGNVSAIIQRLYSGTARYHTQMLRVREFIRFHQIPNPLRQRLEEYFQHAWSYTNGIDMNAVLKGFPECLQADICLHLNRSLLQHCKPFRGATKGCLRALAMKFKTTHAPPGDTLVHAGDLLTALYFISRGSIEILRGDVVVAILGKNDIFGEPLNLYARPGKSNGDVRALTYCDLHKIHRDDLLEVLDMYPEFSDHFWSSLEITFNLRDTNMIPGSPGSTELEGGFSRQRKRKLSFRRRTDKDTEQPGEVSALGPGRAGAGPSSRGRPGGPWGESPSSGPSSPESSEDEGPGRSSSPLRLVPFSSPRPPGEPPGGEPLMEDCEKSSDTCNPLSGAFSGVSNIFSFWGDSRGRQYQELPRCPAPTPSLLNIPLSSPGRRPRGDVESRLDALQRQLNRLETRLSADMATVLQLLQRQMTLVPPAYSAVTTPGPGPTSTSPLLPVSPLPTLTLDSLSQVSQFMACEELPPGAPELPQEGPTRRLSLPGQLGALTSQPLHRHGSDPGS
Chain of A disintegrin and metalloproteinase with thrombospondin motifs 7 (Mus musculus, UniProt Q68SA9) (Q68SA9 whole entry): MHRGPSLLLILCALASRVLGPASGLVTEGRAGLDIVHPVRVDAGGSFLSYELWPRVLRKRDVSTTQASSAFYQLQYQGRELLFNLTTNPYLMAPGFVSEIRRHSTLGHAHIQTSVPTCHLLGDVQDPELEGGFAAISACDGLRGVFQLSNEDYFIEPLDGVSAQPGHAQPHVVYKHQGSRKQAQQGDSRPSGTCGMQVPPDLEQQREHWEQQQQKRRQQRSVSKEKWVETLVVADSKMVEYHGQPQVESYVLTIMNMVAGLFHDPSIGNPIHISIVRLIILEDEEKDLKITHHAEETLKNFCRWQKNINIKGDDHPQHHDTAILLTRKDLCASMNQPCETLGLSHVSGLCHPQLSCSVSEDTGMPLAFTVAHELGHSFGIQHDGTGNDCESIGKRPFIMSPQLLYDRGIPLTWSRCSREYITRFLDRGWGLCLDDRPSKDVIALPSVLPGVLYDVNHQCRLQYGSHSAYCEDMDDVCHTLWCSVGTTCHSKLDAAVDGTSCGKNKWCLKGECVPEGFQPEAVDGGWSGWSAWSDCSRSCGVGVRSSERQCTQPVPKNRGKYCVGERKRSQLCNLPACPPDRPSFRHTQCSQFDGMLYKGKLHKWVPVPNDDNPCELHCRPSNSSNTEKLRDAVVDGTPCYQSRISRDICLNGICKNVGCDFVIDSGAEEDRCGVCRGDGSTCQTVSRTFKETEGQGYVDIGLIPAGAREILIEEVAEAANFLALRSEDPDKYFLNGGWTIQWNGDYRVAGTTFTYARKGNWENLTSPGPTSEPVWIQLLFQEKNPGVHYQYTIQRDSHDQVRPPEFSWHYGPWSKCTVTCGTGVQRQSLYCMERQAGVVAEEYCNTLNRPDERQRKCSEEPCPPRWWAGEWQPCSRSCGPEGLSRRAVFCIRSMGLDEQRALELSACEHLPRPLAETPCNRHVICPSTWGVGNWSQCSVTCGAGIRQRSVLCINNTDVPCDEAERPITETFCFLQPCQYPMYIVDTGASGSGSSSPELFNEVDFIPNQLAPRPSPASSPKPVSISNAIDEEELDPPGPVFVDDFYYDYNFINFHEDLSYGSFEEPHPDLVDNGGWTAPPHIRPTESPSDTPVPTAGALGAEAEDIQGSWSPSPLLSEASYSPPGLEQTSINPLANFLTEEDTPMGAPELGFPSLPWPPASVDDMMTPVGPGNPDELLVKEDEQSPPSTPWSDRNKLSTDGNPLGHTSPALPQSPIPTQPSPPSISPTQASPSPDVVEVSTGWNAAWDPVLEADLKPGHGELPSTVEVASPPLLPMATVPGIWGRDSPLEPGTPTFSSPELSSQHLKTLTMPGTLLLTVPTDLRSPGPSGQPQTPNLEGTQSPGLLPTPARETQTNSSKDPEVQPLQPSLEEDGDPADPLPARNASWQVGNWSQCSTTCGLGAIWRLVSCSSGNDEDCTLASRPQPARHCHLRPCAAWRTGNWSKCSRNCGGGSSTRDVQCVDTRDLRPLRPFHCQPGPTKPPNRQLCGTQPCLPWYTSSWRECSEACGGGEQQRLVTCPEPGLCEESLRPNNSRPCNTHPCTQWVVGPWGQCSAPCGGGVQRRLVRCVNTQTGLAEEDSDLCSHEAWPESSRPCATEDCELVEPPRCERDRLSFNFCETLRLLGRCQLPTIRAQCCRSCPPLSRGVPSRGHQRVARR
Chain of A disintegrin and metalloproteinase with thrombospondin motifs 7 (Rattus norvegicus, UniProt Q1EHB3) (Q1EHB3 whole entry): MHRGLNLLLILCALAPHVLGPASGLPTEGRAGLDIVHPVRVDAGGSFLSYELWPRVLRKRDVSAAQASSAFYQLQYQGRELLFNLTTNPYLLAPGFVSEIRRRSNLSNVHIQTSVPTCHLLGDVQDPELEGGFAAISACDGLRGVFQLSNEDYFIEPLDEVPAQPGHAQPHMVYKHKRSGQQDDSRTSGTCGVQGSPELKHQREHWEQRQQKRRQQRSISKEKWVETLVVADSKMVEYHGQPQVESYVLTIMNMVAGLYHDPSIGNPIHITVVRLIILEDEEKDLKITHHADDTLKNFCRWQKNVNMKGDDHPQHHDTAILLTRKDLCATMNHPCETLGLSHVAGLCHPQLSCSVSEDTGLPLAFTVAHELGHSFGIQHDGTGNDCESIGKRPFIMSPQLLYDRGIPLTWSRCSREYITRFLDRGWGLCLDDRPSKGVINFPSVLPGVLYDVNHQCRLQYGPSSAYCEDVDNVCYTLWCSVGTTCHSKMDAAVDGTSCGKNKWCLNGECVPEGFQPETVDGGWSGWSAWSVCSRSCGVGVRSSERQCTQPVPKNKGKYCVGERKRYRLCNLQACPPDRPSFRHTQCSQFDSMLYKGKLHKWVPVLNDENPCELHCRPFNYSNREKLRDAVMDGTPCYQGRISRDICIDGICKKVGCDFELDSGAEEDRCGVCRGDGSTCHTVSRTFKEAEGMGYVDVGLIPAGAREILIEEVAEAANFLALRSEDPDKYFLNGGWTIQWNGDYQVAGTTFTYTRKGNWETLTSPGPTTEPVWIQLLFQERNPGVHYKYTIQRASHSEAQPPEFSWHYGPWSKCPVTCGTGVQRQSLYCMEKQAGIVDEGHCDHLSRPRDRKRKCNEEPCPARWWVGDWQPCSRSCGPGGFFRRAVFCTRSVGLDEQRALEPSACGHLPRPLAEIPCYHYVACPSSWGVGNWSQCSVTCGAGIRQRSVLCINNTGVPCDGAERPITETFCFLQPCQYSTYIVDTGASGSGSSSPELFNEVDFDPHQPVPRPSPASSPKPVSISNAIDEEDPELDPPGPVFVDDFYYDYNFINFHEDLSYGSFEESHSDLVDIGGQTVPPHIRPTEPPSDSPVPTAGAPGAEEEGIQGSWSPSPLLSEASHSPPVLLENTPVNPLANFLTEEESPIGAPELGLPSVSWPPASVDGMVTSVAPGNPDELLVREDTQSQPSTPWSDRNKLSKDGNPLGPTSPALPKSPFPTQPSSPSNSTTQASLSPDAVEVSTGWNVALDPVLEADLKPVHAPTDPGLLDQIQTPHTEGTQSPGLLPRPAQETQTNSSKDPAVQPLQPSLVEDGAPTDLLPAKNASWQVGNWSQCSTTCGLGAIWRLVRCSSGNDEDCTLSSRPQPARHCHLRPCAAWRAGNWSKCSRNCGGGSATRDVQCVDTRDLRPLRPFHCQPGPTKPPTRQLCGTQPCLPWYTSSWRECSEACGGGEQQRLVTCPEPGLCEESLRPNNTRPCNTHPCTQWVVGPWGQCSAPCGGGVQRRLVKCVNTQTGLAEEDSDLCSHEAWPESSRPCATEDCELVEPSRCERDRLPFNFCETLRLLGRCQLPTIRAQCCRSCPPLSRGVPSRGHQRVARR

Question: Which Ratio IC50 [1] does the source give for Cn1nccc1[C@]1(CNC(=O)c2ccc(F)c(F)c2-c2ccc(C(F)(F)F)cc2)NC(=O)NC1=O here?
Answer: 1120

Question: And the Ratio IC50 [2]?
Answer: 962

Question: What about the Ratio IC50 [3] of the same compound?
Answer: 13100

Question: And the Activity (Cytochrome P450 3A4 [4])?
Answer: 18 µM

Question: What about the Stability [5] of the same compound?
Answer: Stable

Question: And the IC50 [6]?
Answer: 8 nM

Question: What about the IC50 [7] of the same compound?
Answer: 27 nM

Question: And the Stability [8]?
Answer: Stable

Question: And the Fu [9]?
Answer: 15%

Question: What about the “inhibition (INH)” value (Cytochrome P450 3A4 [10]) of the same compound?
Answer: Not Active

Question: What about the Activity (Cytochrome P450 3A4 [11]) of the same compound?
Answer: Not Active

Question: And the Activity [12]?
Answer: Non-Toxic

Question: And the “inhibition (INH)” value [13]?
Answer: Not Active

Question: What about the Ratio IC50 [14] of the same compound?
Answer: 5470

Question: What about the Ratio IC50 [15] of the same compound?
Answer: > 16700

Question: And the AUC/dose [16]?
Answer: 1.15 kg·h/L

Question: What about the Vdss [17] of the same compound?
Answer: 1.6 L/kg

Question: And the Vdss [18]?
Answer: 1.2 L/kg

Question: What about the AUC/dose [19] of the same compound?
Answer: 3 kg·h/L

Question: And the CL [20]?
Answer: 0.02 L/h/kg

Question: And the Vdss [21]?
Answer: 0.4 L/kg

Question: What about the t1/2 [22] of the same compound?
Answer: 25 h
